Measurements published in EP1067939B1, “USE OF STEROIDAL ALKALOID DERIVATIVES AS INHIBITORS OF HEDGEHOG PROTEIN SIGNALING PATHWAYS” (The Johns Hopkins University, priority 1998, dated 1999).
Read-outs that look alike come from different tables or passages of the source.

Key:
His6Hh-C = target: T1, His6Hh-C (Drosophila melanogaster, UniProt Q02936); test: In vitro Hh autoprocessing reaction with purified components; type: biochemical; conditions: for efficiency in driving the in vitro autoprocessing reaction: 12 µM sterol
T1 construct: made in house
T1 sequence (Q02936 252-471): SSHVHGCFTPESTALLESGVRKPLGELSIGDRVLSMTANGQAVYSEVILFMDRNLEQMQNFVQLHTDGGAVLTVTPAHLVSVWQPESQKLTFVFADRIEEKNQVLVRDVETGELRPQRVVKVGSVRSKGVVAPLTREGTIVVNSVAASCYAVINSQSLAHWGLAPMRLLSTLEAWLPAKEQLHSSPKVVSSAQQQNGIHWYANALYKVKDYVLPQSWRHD

Shh-N = test: Intermediate neural plate explant response to exogenous Shh-N protein; type: cell-based, chick
BMP7 = test: Neural plate explant response to BMP7 (migratory HNK-1 positive cells); type: cell-based, chick
[1] = at the concentrations that block the response to 25 nM Shh-N

CC(C)=CCC[C@@H](C)[C@H]1CC[C@@]2(C)C3=C(CC[C@]12C)[C@@]1(C)CC[C@H](O)C(C)(C)[C@@H]1CC3 [Lanosterol]
stimulation of autoprocessing (His6Hh-C; 12 and 350 µM): do not stimulate autoprocessing above background

CC(C)=CCC[C@@H](C)[C@H]1CC[C@H]2[C@@H]3CC=C4C[C@@H](O)CC[C@]4(C)[C@H]3CC[C@]12C [desmosterol]
efficiency in driving the in vitro autoprocessing reaction (His6Hh-C): efficiencies similar to that of cholesterol

C[C@H](CCCC(C)(C)O)[C@H]1CC[C@H]2[C@@H]3CC=C4C[C@@H](O)CC[C@]4(C)[C@H]3CC[C@]12C [25-hydroxycholesterol]
reversal of the inhibitory effects of the teratogenic compounds (Shh-N; 25 µM added together with teratogenic compounds): did not reverse the inhibitory effects | explant responses to Shh-N (Shh-N; 25 µM, 2nM or 25 nM Shh-N): None of the explant responses to treatment with 2nM or 25 nM Shh-N were affected

CC(C)CC[C@@H](O)[C@](C)(O)[C@H]1CC[C@@]2(O)C3=CC(=O)[C@]4(O)C[C@@H](O)[C@@H](O)C[C@]4(C)[C@H]3[C@H](O)C[C@]12C [muristerone]
stimulation of autoprocessing (His6Hh-C): do not stimulate autoprocessing above background

CC(=O)O[C@H]1CC[C@@]2(C)C(=CC[C@H]3[C@@H]4CC[C@H]([C@H](C)CCCC(C)C)[C@@]4(C)CC[C@@H]32)C1 [cholesterol acetate]
participation of sterol in the autoprocessing reaction (His6Hh-C): unable to participatein the reaction

CC(=O)[C@H]1CC[C@H]2[C@@H]3CCC4=CC(=O)CC[C@]4(C)[C@H]3CC[C@]12C [progesterone]
concentration that blocks the response of intermediate neural plate explants to 25 nM Shh-N (Shh-N; 25 nM Shh-N): 20 µM | signaling by BMP7 (BMP7; [1]): without affecting signaling by BMP7

CC(C)(O)CC[C@@H](O)[C@](C)(O)[C@H]1CC[C@@]2(O)C3=CC(=O)[C@@H]4C[C@@H](O)[C@@H](O)C[C@]4(C)[C@H]3CC[C@]12C [20-OH ecdysone]
participation of sterol in the autoprocessing reaction (His6Hh-C): unable to participatein the reaction

CC(C)CCC[C@@H](C)[C@H]1CC[C@H]2C3=CC[C@H]4C[C@@H](O)CC[C@]4(C)[C@H]3CC[C@]12C [lathosterol]
efficiency in driving the in vitro autoprocessing reaction (His6Hh-C): efficiencies similar to that of cholesterol

C[C@H]([C@H](O)CCC(C)(C)O)[C@H]1CC[C@@]2(O)C3=CC(=O)[C@@H]4C[C@@H](O)[C@@H](O)C[C@]4(C)[C@H]3CC[C@]12C [α-ecdysone]
participation of sterol in the autoprocessing reaction (His6Hh-C): unable to participatein the reaction

CN(C)CCCN1c2ccccc2CCc2ccccc21 [imipramine]
concentration that blocks the response of intermediate neural plate explants to 25 nM Shh-N (Shh-N; 25 nM Shh-N): 75 µM | signaling by BMP7 (BMP7; [1]): without affecting signaling by BMP7

CCN(CC)CCO[C@H]1CC[C@@]2(C)C(=CC[C@@H]3[C@@H]2CC[C@]2(C)C(=O)CC[C@@H]32)C1 [U 18666A]
concentration that blocks the response of intermediate neural plate explants to 25 nM Shh-N (Shh-N; 25 nM Shh-N): 0.25 µM | signaling by BMP7 (BMP7; [1]): without affecting signaling by BMP7

CC(C)CCC[C@@H](C)[C@H]1CC[C@H]2C3=CC=C4C[C@@H](O)CC[C@]4(C)[C@H]3CC[C@]12C [7DHC, 7-dehydrocholestetol]
efficiency in driving the in vitro autoprocessing reaction (His6Hh-C): efficiencies similar to that of cholesterol

CC(C)CCC[C@@H](C)[C@H]1CC[C@H]2[C@@H]3CC=C4C[C@H](O)CC[C@]4(C)[C@H]3CC[C@]12C [Epicholesterol]
participation of sterol in the autoprocessing reaction (His6Hh-C): unable to participatein the reaction

CC(C)CCC[C@@H](C)[C@H]1CC[C@H]2[C@@H]3CC=C4C[C@@H](S)CC[C@]4(C)[C@H]3CC[C@]12C [thiocholesterol]
participation of sterol in the autoprocessing reaction (His6Hh-C): unable to participatein the reaction

CCN(CC)CCCC(C)Nc1ccnc2cc(Cl)ccc12 (centres unmarked) [chloroquine]
concentration that blocks the response of intermediate neural plate explants to 25 nM Shh-N (Shh-N): 50 µM | signaling by BMP7 (BMP7): without affecting signaling by BMP7
